Measurements: ChEMBL document CHEMBL1130957, “Functional characteristics of a series of N4-substituted 1-(2,3-dihydro-1,4-benzodioxin-5-yl)piperazines as 5-HT1A receptor ligands. Structure-activity relationships” (Bioorg Med Chem Lett, 1998)
pEC50, pKi: −log10 of the molar value.

Assays:
[1] = target: T1, 5-hydroxytryptamine receptor 1A (Homo sapiens) (UniProt P08908); experiment: Agonistic efficacy in adenylyl cyclase assay in CHO cells expressing human 5-HT1A receptor (experiment 2); format: functional, cell-based
T1 sequence (whole entry): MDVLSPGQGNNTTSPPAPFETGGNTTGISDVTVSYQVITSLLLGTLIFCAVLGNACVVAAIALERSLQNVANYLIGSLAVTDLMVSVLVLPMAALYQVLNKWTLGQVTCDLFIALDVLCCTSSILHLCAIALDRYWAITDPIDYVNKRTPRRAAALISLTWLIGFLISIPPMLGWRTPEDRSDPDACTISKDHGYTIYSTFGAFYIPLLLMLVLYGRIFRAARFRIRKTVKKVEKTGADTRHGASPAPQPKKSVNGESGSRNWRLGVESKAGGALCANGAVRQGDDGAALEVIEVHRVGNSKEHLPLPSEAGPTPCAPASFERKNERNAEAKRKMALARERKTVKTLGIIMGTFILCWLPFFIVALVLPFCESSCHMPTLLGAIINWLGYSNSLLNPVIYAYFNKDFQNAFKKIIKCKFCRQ

[2] = target: T1, 5-hydroxytryptamine receptor 1A (Homo sapiens); experiment: Antagonistic efficacy as adenylyl cyclase assay in CHO cells expressing human 5-HT1A receptor (experiment 1); format: functional, cell-based
[3] = target: T1, 5-hydroxytryptamine receptor 1A (Homo sapiens); experiment: Antagonistic efficacy as adenylyl cyclase assay in CHO cells expressing human 5-HT1A receptor (experiment 2); format: functional, cell-based
[4] = target: T2, 5-hydroxytryptamine receptor 1A (Homo sapiens, UniProt P08908); experiment: Potency against human 5-hydroxytryptamine 1A receptor expressed in CHO cells (experiment 1); format: functional, cell-based
T2 sequence (P08908 whole entry): T1 sequence (whole entry)

[5] = target: T2, 5-hydroxytryptamine receptor 1A; experiment: Compound was tested for its potency against human 5-hydroxytryptamine 1A receptor expressed in CHO cells (experiment 2); format: functional, cell-based
[6] = target: T3, 5-hydroxytryptamine receptor 1A (Rattus norvegicus, UniProt P19327); experiment: (§1) Compound was tested for its potency against 5-hydroxytryptamine 1A receptor in rat frontal cortex membranes (experiment 2); format: cell membranes, Membrane; details: read-out: pA2 (converted)
T3 sequence (P19327 whole entry): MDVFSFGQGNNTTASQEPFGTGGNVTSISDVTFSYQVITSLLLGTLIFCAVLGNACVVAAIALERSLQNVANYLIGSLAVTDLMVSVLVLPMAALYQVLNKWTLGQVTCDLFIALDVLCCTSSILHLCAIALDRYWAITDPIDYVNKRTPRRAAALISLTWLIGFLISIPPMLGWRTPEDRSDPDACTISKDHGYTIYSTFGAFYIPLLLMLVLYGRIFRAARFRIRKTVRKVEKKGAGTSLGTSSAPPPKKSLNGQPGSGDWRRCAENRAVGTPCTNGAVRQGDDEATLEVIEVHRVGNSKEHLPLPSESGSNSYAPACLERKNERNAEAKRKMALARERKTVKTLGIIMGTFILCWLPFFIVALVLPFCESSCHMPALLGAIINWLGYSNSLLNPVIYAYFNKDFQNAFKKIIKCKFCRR

[7] = target: T3, 5-hydroxytryptamine receptor 1A; experiment: Compound was tested for its potency against 5-hydroxytryptamine 1A receptor in rat frontal cortex membranes (experiment 1); format: cell membranes, Membrane; details: read-out: pA2 (converted)
[8] = target: T1, 5-hydroxytryptamine receptor 1A (Homo sapiens); experiment: Agonistic efficacy as adenylyl cyclase assay in CHO cells expressing human 5-HT1A receptor (experiment 1); format: functional, cell-based
[9] = target: T3, 5-hydroxytryptamine receptor 1A
Description: Inhibition of [3H]8-OH-DPAT binding to 5-hydroxytryptamine 1A receptor of rat frontal cortex membranes

[10] = target: T3, 5-hydroxytryptamine receptor 1A; experiment: as §1; format: functional, cell membranes, Membrane; details: read-out: pA2 (converted)
[11] = target: T2, 5-hydroxytryptamine receptor 1A; experiment: Compound was tested for its potency against 5-hydroxytryptamine 1A receptor expressed in CHO cells (experiment 2); format: functional, cell-based
[12] = target: T1, 5-hydroxytryptamine receptor 1A (Homo sapiens); experiment: Agonistic efficacy was evaluated by adenylyl cyclase assay in CHO cells stably expressing the human 5-HT1A receptor (experiment 2); format: functional, cell-based
[13] = target: T1, 5-hydroxytryptamine receptor 1A (Homo sapiens); experiment: Antagonistic efficacy was evaluated by adenylyl cyclase assay in CHO cells stably expressing the human 5-HT1A receptor (experiment 1); format: functional, cell-based
[14] = target: T1, 5-hydroxytryptamine receptor 1A (Homo sapiens); experiment: Antagonistic efficacy was evaluated by adenylyl cyclase assay in CHO cells stably expressing the human 5-HT1A receptor (experiment 2); format: functional, cell-based
[15] = target: T1, 5-hydroxytryptamine receptor 1A (Homo sapiens); experiment: Antagonistic efficacy was evaluated by adenylyl cyclase assay in CHO cells stably expressing the human 5-HT1A receptor; format: functional, cell-based
[16] = target: T2, 5-hydroxytryptamine receptor 1A

O=C1c2ccccc2C(=O)N1CCCCN1CCN(c2cccc3c2OCCO3)CC1
Efficacy [1]: 49%
Efficacy [2]: 55%
Efficacy [3]: 62%
pEC50 [4]: 8.87
pEC50 [5]: 8.24
Kb [6]: 0.676 nM
Kb [7]: 0.661 nM
Efficacy [8]: 44%
pKi [9]: 9.64

O=C1c2ccccc2S(=O)(=O)N1CCCCN1CCN(c2cc(Cl)cc3c2OCCO3)CC1 [DU 125530]
Efficacy [1]: 0%
Efficacy [2]: 100%
Efficacy [3]: 100%
Kb [10]: 0.288 nM
Efficacy [8]: 0%
pKi [9]: 9.15

O=C(CCCN1CCN(c2cccc3c2OCCO3)CC1)c1ccc(F)cc1
Efficacy [1]: 48%
Efficacy [2]: 22%
Efficacy [3]: 42%
pEC50 [4]: 8.28
pEC50 [5]: 8.13
Efficacy [8]: 50%
pKi [9]: 8.87

O=C1c2ccccc2S(=O)(=O)N1CCN1CCN(c2cccc3c2OCCO3)CC1
Efficacy [1]: 86%
Efficacy [2]: 0%
Efficacy [3]: 0%
pEC50 [11]: 6.20
pEC50 [4]: 6.60
Efficacy [8]: 97%
pKi [9]: 8.91

O=C(NCCN1CCN(c2cccc3c2OCCO3)CC1)c1ccc(F)cc1
Efficacy [1]: 97%
Efficacy [2]: 0%
Efficacy [3]: 0%
pEC50 [4]: 9.02
pEC50 [5]: 9.07
Efficacy [8]: 97%
pKi [9]: 9.53

O=C1c2ccccc2S(=O)(=O)N1CCCCN1CCN(c2cccc3c2OCCO3)CC1
Efficacy [1]: 23%
Efficacy [2]: 68%
Efficacy [3]: 65%
Kb [10]: 0.363 nM
Efficacy [8]: 11%
pKi [9]: 9.54

c1ccc(CCCCN2CCN(c3cccc4c3OCCO4)CC2)cc1
Efficacy [1]: 50%
Efficacy [2]: 74%
Efficacy [3]: 70%
pEC50 [4]: 8.17
pEC50 [5]: 8.22
Kb [6]: 25.1 nM
Efficacy [8]: 45%

O=C(CCCN1CCN(c2cccc3c2OCCO3)CC1)c1ccccc1
Efficacy [12]: 67%
Efficacy [13]: 33%
Efficacy [14]: 18%
pEC50 [4]: 8.54
pEC50 [5]: 8.55
Efficacy [8]: 71%

O=C(NCCN1CCN(c2cccc3c2OCC(CO)O3)CC1)c1ccc(F)cc1 (single isomer, unassigned) [FLESINOXAN]
Efficacy [15]: 0%
pEC50 [16]: 8.18

O=C1c2ccccc2C(=O)N1CCN1CCN(c2cccc3c2OCCO3)CC1
Efficacy [1]: 30%
Efficacy [2]: 0%
Efficacy [3]: 2%
Efficacy [8]: 0%
pKi [9]: 7.50

O=C1c2ccccc2S(=O)(=O)N1CCCCN1CCN(c2ncccn2)CC1 [IPSAPIRONE]
Efficacy [15]: 0%
pEC50 [16]: 7.17

O=C(NCCCCN1CCN(c2cccc3c2OCCO3)CC1)c1ccc(F)cc1
Efficacy [1]: 85%
Efficacy [2]: 17%
Efficacy [3]: 0%
pEC50 [4]: 7.90
pEC50 [5]: 7.50
Efficacy [8]: 81%
pKi [9]: 8.98
